Laboratory results published in US7939712B2, “Method to alleviate abiotic stress in plants by expression of mitochondrial-targeted purple acid phosphatase” (The Chinese University of Hong Kong, priority 2006, dated 2011).
Marks after values point to notes of the source that are not given here.

Test system: BY-2 cells
Assay: Analysis of mitochondria integrity (Rh123 staining) under NaCl or PEG stress
Type: cell-based, tobacco
Settings: wild type BY-2 + 10 mM ascorbic acid
Method: Cells were treated with 200 mM NaCl for 1 h or 2% PEG for 1 h before staining with 10 μg/ml rhodamine-123 (Rh123) (R302, Molecular Probes) for 1 h. The signal of Rh123 was excited by green HeNe laser at 543 nm. The filter set HQ590/70 was used and confocal images were collected by the Bio-Rad Radiance 2100 system. 10-25 cells were counted for each sample for statistical analysis.
Transgenic BY-2 cell lines prepared as in Example 1 were cultured to express the GmPAP3 protein and subjected to treatment with sodium chloride or polyethylene glycol (PEG, osmotic stress) as explained above and in the description of the results as shown in FIGS. 3A-3L. The results on mitochondrial integrity were compared with the effect of the presence of ascorbic acid. The results are shown in the table below which summarizes the data in FIGS. 3A-3L. The data are the results of counting 10-25 cells and the experiment repeated 3 times. The percentage was presented as the mean value of 3 experiments±SD, where ** denotes statistical difference (p<0.01) from the wild type BY-2 cells under the same treatment, based on one-way ANOVA followed by the Turkey test.
Wild type (WT) BY-2 cells (FIGS. 3A-3C) and GmPAP3 transgenic BY-2 cell lines #20 and #29 (FIGS. 3G-3I and FIGS. 3J-3L, respectively) without ascorbic acid supplements and wild type BY-2 cells with 10 mM ascorbic acid supplements (+Asc) (FIGS. 3D-3F) were pre-treated in a cell culture medium without stress (FIGS. 3A, 3D, 3G and 3J), with 200 mM NaCl for 1 hr (FIGS. 3B, 3E, 3H and 3K), or with 2% PEG for 1 h (FIGS. 3C, 3F, 3I, 3L) before staining with 10 μg/mL Rh123 for another hour. The signal of Rh123 was observed using a confocal laser scanning microscope (see materials and methods). 10-25 cells were counted for each line. Scale bar=50 μm.

O=C1O[C@H]([C@@H](O)CO)C(O)=C1O [ascorbic acid]
% cells with intact mitochondria, NaCl (200 mM NaCl 1 h, mean of 3 experiments ± SD): 86.20 ± 3.3** % | % cells with intact mitochondria, PEG (2% PEG 1 h, mean of 3 experiments ± SD): 82.16 ± 3.7** % | % cells with intact mitochondria, Control (medium without stress): 100%
